From patent US20240116985A1, “STAPLED PEPTIDES AND METHODS THEREOF” (priority 2020, published 2024) come the findings set out here.

The assay has as its target T1, full-length beta-Catenin (Uniprot ID P35222) (Homo sapiens, UniProt P35222).
T1 construct: 10 nM full-length beta-Catenin (Uniprot ID P35222)
T1 sequence (P35222 1-781): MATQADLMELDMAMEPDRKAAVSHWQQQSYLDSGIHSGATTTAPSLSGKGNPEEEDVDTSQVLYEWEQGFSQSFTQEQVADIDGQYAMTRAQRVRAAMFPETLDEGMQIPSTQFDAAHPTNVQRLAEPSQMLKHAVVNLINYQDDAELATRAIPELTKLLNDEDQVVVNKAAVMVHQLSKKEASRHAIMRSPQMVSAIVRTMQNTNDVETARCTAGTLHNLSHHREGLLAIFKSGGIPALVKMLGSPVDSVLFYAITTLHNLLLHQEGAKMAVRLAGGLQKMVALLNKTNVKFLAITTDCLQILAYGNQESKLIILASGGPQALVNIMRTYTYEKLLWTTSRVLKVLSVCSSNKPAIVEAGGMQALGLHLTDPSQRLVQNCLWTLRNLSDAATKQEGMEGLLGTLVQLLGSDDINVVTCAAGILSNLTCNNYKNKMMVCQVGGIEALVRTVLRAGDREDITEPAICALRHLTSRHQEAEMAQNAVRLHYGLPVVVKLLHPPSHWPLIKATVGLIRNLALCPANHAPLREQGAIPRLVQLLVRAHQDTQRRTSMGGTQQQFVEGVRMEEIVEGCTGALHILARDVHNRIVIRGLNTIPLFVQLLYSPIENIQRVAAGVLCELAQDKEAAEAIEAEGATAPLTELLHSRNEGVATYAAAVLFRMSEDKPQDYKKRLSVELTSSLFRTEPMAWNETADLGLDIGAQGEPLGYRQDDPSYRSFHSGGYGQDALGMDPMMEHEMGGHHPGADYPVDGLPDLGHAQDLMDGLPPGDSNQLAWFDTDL
The assay is described as follows: Fluorescence polarization IC50 (beta-catenin / 5FAM-TCF4 10-53 competition). The format is binding. To be noted: fluorescence polarization; read-out: beta-Catenin FP IC50.

As to `CC(=O)N1CCC[C@]12CC=CCCCC1(CCCC=CCCCOC(=O)N3CC[C@@](C(=O)N[C@@H](Cc4ccsc4)C(=O)N[C@@H](Cc4csc5ccccc45)C(=O)N[C@@H](CCC(N)=O)C(N)=O)(C3)NC(=O)[C@H](CC(N)=O)NC(=O)[C@H](Cc3ccccc3)NC(=O)[C@H](C)NC(=O)[C@H](C)NC(=O)[C@H](CN(CCC(F)(F)F)CC(=O)O)NC(=O)[C@H](CC(=O)O)NC1=O)NC(=O)[C@H](CC(C)(C)C)NC(=O)[C@H](CC(=O)O)NC2=O` (stereo partly drawn) [I-1640, Ac-PL3-Asp-Npg-B5-Asp-[Tfp]GA-Ala-Ala-Phe-Asn-PyrS2-3Thi-BztA-Gln-NH2], the IC50 worked out at 8 nM.
As to `CC(=O)N1CCC[C@]12CC=CCCCC1(CCCC=CCCCOC(=O)N3CC[C@@](C(=O)N[C@@H](Cc4ccsc4)C(=O)N[C@@H](Cc4csc5ccccc45)C(=O)N[C@@H](CCC(N)=O)C(=O)NC4CCCCC4)(C3)NC(=O)[C@H](CC(N)=O)NC(=O)[C@H](Cc3ccccc3)NC(=O)[C@H](C)NC(=O)[C@H](C)NC(=O)[C@H](CN(CC(=O)O)CC(F)(F)F)NC(=O)[C@H](CC(=O)O)NC1=O)NC(=O)[C@H](CC(C)(C)C)NC(=O)[C@H](CC(=O)O)NC2=O` (stereo partly drawn) [I-1642, Ac-PL3-Asp-Npg-B5-Asp-TfeGA-Ala-Ala-Phe-Asn-PyrS2-3Thi-BztA-Gln-NHCyHe], the concentration for half-maximal inhibition (IC50) came out at 36 nM.
Consider `CC(=O)N1CCC[C@]12CC=CCCCC1(CCCC=CCCCOC(=O)N3CC[C@@](C(=O)N[C@@H](Cc4ccccc4)C(=O)N[C@@H](Cc4csc5ccccc45)C(=O)N[C@@H](CCCCN)C(N)=O)(C3)NC(=O)[C@H](CC(C)C)NC(=O)[C@H](Cc3ccccc3)NC(=O)[C@H](C)NC(=O)[C@H](CCCCNC(C)C)NC(=O)[C@H](CCC(N)=O)NC(=O)[C@H](CC(=O)O)NC1=O)NC(=O)[C@H](CC(C)(C)C)NC(=O)[C@H](CC(N)=O)NC2=O` (stereo partly drawn) [I-1643, Ac-PL3-Asn-Npg-B5-Asp-Gln-iPrLys-Ala-Phe-Leu-PyrS2-Phe-BztA-Lys-NH2], for which the half-inhibitory concentration (IC50) worked out at 822 nM.
As for `CC(=O)N1CCC[C@]12CC=CCCCC1(CCCC=CCCCOC(=O)N3CC[C@@](C(=O)N[C@@H](Cc4ccccc4)C(=O)N[C@@H](Cc4csc5ccccc45)C(=O)N[C@@H](CCCCNC(C)C)C(N)=O)(C3)NC(=O)[C@H](CC(C)C)NC(=O)[C@H](Cc3ccccc3)NC(=O)[C@H](C)NC(=O)[C@H](CCCCNC(C)C)NC(=O)[C@H](CCC(N)=O)NC(=O)[C@H](CC(=O)O)NC1=O)NC(=O)[C@H](CC(C)(C)C)NC(=O)[C@H](CC(N)=O)NC2=O` (stereo partly drawn) [I-1645, Ac-PL3-Asn-Npg-B5-Asp-Gln-iPrLys-Ala-Phe-Leu-PyrS2-Phe-BztA-iPrLys-NH2], the figure is 940 nM; as for `CC(=O)N1CCC[C@]12CC=CCCCC1(CCCC=CCCCOC(=O)N3CC[C@@](C(=O)N[C@@H](Cc4ccccc4)C(=O)N[C@@H](Cc4csc5ccccc45)C(=O)N[C@@H](CCO)C(N)=O)(C3)NC(=O)[C@H](CC(C)C)NC(=O)[C@H](Cc3ccccc3)NC(=O)[C@H](C)NC(=O)[C@H](CCCCNC(C)C)NC(=O)[C@H](CCC(N)=O)NC(=O)[C@H](CC(=O)O)NC1=O)NC(=O)[C@H](CC(C)(C)C)NC(=O)[C@H](CC(N)=O)NC2=O` (stereo partly drawn) [I-1646, Ac-PL3-Asn-Npg-B5-Asp-Gln-iPrLys-Ala-Phe-Leu-PyrS2-Phe-BztA-Hse-NH2], 640 nM.
To `CC(=O)N1CCC[C@]12CC=CCCCC1(CCCC=CCCCOC(=O)N3CC[C@@](C(=O)N[C@@H](Cc4ccccc4)C(=O)N[C@@H](Cc4csc5ccccc45)C(=O)N[C@@H](CCC(N)=O)C(N)=O)(C3)NC(=O)[C@H](CC(C)C)NC(=O)[C@H](Cc3ccccc3)NC(=O)[C@H](C)NC(=O)[C@H](CCCCNC(C)C)NC(=O)[C@H](CCC(N)=O)NC(=O)[C@H](CC(=O)O)NC1=O)NC(=O)[C@H](Cc1ccc(O)cc1)NC(=O)[C@H](CC(N)=O)NC2=O` (stereo partly drawn) [I-1647, Ac-PL3-Asn-Tyr-B5-Asp-Gln-iPrLys-Ala-Phe-Leu-PyrS2-Phe-BztA-Gln-NH2] belongs 2350 nM; to `CC(=O)N1CCC[C@]12CC=CCCCC1(CCCC=CCCCOC(=O)N3CC[C@@](C(=O)N[C@@H](Cc4ccccc4)C(=O)N[C@@H](Cc4csc5ccccc45)C(=O)N[C@@H](CCC(N)=O)C(N)=O)(C3)NC(=O)[C@H](CC(C)C)NC(=O)[C@H](CC3CCCCC3)NC(=O)[C@H](C)NC(=O)[C@H](CCCCNC(C)C)NC(=O)[C@H](CCC(N)=O)NC(=O)[C@H](CC(=O)O)NC1=O)NC(=O)[C@H](CC(C)(C)C)NC(=O)[C@H](CC(N)=O)NC2=O` (stereo partly drawn) [I-1649, Ac-PL3-Asn-Npg-B5-Asp-Gln-iPrLys-Ala-Cha-Leu-PyrS2-Phe-BztA-Gln-NH2], 2480 nM; to `CC(=O)N1CCC[C@]12CC=CCCCC1(CCCC=CCCCOC(=O)N3CC[C@@](C(=O)N[C@@H](Cc4ccccc4)C(=O)N[C@@H](Cc4csc5ccccc45)C(=O)N[C@@H](CCC(N)=O)C(N)=O)(C3)NC(=O)[C@H](CC3CCCCC3)NC(=O)[C@H](Cc3ccccc3)NC(=O)[C@H](C)NC(=O)[C@H](CCCCNC(C)C)NC(=O)[C@H](CCC(N)=O)NC(=O)[C@H](CC(=O)O)NC1=O)NC(=O)[C@H](CC(C)(C)C)NC(=O)[C@H](CC(N)=O)NC2=O` (stereo partly drawn) [I-1650, Ac-PL3-Asn-Npg-B5-Asp-Gln-iPrLys-Ala-Phe-Cha-PyrS2-Phe-BztA-Gln-NH2], 1680 nM.
To `CC(=O)N1CCC[C@]12CC=CCCCC1(CCCC=CCCCOC(=O)N3CC[C@@](C(=O)N[C@@H](CC4CCCCC4)C(=O)N[C@@H](Cc4csc5ccccc45)C(=O)N[C@@H](CCC(N)=O)C(N)=O)(C3)NC(=O)[C@H](CC(C)C)NC(=O)[C@H](Cc3ccccc3)NC(=O)[C@H](C)NC(=O)[C@H](CCCCNC(C)C)NC(=O)[C@H](CCC(N)=O)NC(=O)[C@H](CC(=O)O)NC1=O)NC(=O)[C@H](CC(C)(C)C)NC(=O)[C@H](CC(N)=O)NC2=O` (stereo partly drawn) [I-1651, Ac-PL3-Asn-Npg-B5-Asp-Gln-iPrLys-Ala-Phe-Leu-PyrS2-Cha-BztA-Gln-NH2] belongs 3970 nM.
On to `CC(=O)N1CCC[C@]12CC=CCCCC1(CCCC=CCCCOC(=O)N3CC[C@@](C(=O)N[C@@H](Cc4ccccc4)C(=O)N[C@@H](Cc4csc5ccccc45)C(=O)N[C@@H](CCC(N)=O)C(N)=O)(C3)NC(=O)[C@H](CCCCNC(C)C)NC(=O)[C@H](Cc3ccccc3)NC(=O)[C@H](C)NC(=O)[C@H](CCCCNC(C)C)NC(=O)[C@H](CCC(N)=O)NC(=O)[C@H](CC(=O)O)NC1=O)NC(=O)[C@H](CC(C)(C)C)NC(=O)[C@H](CC(N)=O)NC2=O` (stereo partly drawn) [I-1653, Ac-PL3-Asn-Npg-B5-Asp-Gln-iPrLys-Ala-Phe-iPrLys-PyrS2-Phe-BztA-Gln-NH2], for which the IC50 was determined as 903 nM.
`CC(=O)N1CCC[C@]12CC=CCCCC1(CCCC=CCCCOC(=O)N3CC[C@@](C(=O)N[C@@H](Cc4ccccc4)C(=O)N[C@@H](Cc4csc5ccccc45)C(=O)N[C@@H](CCCCNC(C)C)C(N)=O)(C3)NC(=O)[C@H](CCCCNC(C)C)NC(=O)[C@H](Cc3ccccc3)NC(=O)[C@H](C)NC(=O)[C@H](CCCCNC(C)C)NC(=O)[C@H](CCC(N)=O)NC(=O)[C@H](CC(=O)O)NC1=O)NC(=O)[C@H](CC(C)(C)C)NC(=O)[C@H](CC(N)=O)NC2=O` (stereo partly drawn) [I-1654, Ac-PL3-Asn-Npg-B5-Asp-Gln-iPrLys-Ala-Phe-iPrLys-PyrS2-Phe-BztA-iPrLys-NH2]: the IC50 was 2130 nM.
As to `CC(=O)N1CCC[C@]12CC=CCCCC1(CCCC=CCCCOC(=O)N3CC[C@@](C(=O)N[C@@H](Cc4ccccc4Cl)C(=O)N[C@@H](Cc4csc5ccccc45)C(=O)N[C@@H](CCC(N)=O)C(=O)N[C@@H](C)CO)(C3)NC(=O)[C@H](CC(C)C)NC(=O)[C@H](Cc3ccccc3)NC(=O)[C@H](C)NC(=O)[C@H](C)NC(=O)[C@H](Cc3cccc(C(=O)O)c3)NC(=O)[C@H](CC(=O)O)NC1=O)NC(=O)[C@H](CC(C)(C)C)NC(=O)[C@H](CC(=O)O)NC2=O` (stereo partly drawn) [I-1673, Ac-PL3-Asp-Npg-B5-Asp-3COOHF-Ala-Ala-Phe-Leu-PyrS2-2C1F-BztA-Gln-Alao1], the half-maximal inhibitory concentration (IC50) stood at 28 nM.
Turning to `CC(=O)N1CCC[C@]12CC=CCCCC1(CCCC=CCCCOC(=O)N3CC[C@@](C(=O)N[C@@H](Cc4ccccc4Cl)C(=O)N[C@@H](Cc4csc5ccccc45)C(=O)N[C@@H](CCC(N)=O)C(=O)N[C@H](CO)CC(C)C)(C3)NC(=O)[C@H](CC(C)C)NC(=O)[C@H](Cc3ccccc3)NC(=O)[C@H](C)NC(=O)[C@H](C)NC(=O)[C@H](Cc3cccc(C(=O)O)c3)NC(=O)[C@H](CC(=O)O)NC1=O)NC(=O)[C@H](CC(C)(C)C)NC(=O)[C@H](CC(=O)O)NC2=O` (stereo partly drawn) [I-1676, Ac-PL3-Asp-Npg-B5-Asp-3COOHF-Ala-Ala-Phe-Leu-PyrS2-2C1F-BztA-Gln-Leuo1], the concentration for half-maximal inhibition (IC50) amounted to 91 nM.
As for `CC(=O)N1CCC[C@]12CC=CCCCC1(CCCC=CCCCOC(=O)N3CC[C@@](C(=O)N[C@@H](Cc4ccccc4Cl)C(=O)N[C@@H](Cc4csc5ccccc45)C(=O)N[C@@H](CCC(N)=O)C(=O)N[C@H](CO)[C@@H](C)O)(C3)NC(=O)[C@H](CC(C)C)NC(=O)[C@H](Cc3ccccc3)NC(=O)[C@H](C)NC(=O)[C@H](C)NC(=O)[C@H](Cc3cccc(C(=O)O)c3)NC(=O)[C@H](CC(=O)O)NC1=O)NC(=O)[C@H](CC(C)(C)C)NC(=O)[C@H](CC(=O)O)NC2=O` (stereo partly drawn) [I-1677, Ac-PL3-Asp-Npg-B5-Asp-3COOHF-Ala-Ala-Phe-Leu-PyrS2-2C1F-BztA-Gln-Thro1], the figure is 17 nM.
